The results in this text go back to patent US10980809B2, “Urea-substituted aromatic ring-linked dioxane-quinazoline and -linked dioxane-quinoline compounds, preparation method therefor and use thereof” (BEIJING SCITECH-MQ PHARMACEUTICALS LIMITED, priority 2017, dated 2021).

SMILES strings stand for the structures. Where only a bound is given, the exact number is not on record here.

The target of one assay is B-RAF (Homo sapiens (Human), UniProt P15056). The experiment in a line: Test of small molecule compounds for inhibiting the activity of B-RAF kinase (ADP-Glo). Background: ADP-Glo turns the ADP formed in a reaction into a luminescent signal.
Another assay addresses C-RAF (Homo sapiens (Human), UniProt P04049). The experiment in a line: Test of small molecule compounds for inhibiting the activity of C-RAF kinase (ADP-Glo).
A further assay deals with VEGFR-2 kinase (Homo sapiens (Human), UniProt P35968). Nature of the assay: Test of small molecule compounds for inhibiting the activity of VEGFR-2 kinase. In kind it is biochemical. The following applies: class symbols A-D. As to the method: Test of Small Molecule Compounds for Inhibiting the Activity of VEGFR-2 Kinase
The test was carried out as follows:
2. 2.5 μl of the gradient-diluted compounds was taken with a transfer pipette to a 384-well plate,
3. Addition of enzyme: 5 μl of 2×VEGFR-2 kinase was taken with a transfer pipette to the corresponding reaction well of the 384-well plate, which was mixed and pre-reacted at room temperature for 30 min,
5. Negative control: 2.5 μl/well 4× substrate/ATP Mix and 7.5 μl 1× Kinase Assay Buffer were added to the wells of the 384-well plate,
Positive control: 2.5 μl/well 4× substrate/ATP Mix, 2.5 μl/well 1× Kinase Assay Buffer containing 4% DMSO, and 5 μl/well 2×VEGFR-2 solution were added to the 384-well plate. The final concentration of DMSO in the reaction system is […],
6. The mixture was mixed well and then centrifuged and reacted at room temperature in dark for 60 min,
9. The 384-well plate was placed into the Envision plate reader and the signal was detected using the appropriate program,

One may read the IC50 as the midpoint of a concentration-inhibition curve.

Sequence of VEGFR-2 kinase (P35968 20-1356): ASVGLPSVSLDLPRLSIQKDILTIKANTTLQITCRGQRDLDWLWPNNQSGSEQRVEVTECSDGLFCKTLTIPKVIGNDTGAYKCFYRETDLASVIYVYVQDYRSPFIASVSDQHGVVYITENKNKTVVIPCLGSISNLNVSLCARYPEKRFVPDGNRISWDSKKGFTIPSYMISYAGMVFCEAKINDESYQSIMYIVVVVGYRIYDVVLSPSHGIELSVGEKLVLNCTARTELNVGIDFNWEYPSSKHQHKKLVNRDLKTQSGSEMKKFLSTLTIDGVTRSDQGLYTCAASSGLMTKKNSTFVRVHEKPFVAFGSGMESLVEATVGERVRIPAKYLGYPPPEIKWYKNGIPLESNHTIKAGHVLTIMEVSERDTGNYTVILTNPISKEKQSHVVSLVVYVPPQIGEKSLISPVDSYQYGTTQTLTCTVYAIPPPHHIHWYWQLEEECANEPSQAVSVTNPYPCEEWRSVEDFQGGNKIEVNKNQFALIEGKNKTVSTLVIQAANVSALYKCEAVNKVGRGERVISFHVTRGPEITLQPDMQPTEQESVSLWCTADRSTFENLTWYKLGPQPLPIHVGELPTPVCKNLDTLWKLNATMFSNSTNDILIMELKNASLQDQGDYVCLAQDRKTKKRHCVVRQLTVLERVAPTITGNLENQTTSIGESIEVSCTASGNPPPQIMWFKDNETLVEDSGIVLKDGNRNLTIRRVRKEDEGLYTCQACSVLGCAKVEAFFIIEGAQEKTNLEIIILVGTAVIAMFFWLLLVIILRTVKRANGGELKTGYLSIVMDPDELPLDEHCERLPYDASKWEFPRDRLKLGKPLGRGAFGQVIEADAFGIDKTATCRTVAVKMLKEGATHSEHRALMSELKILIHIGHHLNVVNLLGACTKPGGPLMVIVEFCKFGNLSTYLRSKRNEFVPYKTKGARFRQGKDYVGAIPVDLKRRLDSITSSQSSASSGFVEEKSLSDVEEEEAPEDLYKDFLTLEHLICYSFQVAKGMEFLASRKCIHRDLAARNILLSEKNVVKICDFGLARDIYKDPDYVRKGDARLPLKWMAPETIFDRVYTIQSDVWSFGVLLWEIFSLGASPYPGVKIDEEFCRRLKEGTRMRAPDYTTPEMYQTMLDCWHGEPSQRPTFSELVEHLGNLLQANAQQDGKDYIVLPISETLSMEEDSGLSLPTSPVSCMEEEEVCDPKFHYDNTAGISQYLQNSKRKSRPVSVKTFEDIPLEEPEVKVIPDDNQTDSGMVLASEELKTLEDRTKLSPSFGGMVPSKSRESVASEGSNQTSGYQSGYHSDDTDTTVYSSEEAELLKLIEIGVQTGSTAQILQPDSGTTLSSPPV
Sequence of B-RAF (P15056 whole entry): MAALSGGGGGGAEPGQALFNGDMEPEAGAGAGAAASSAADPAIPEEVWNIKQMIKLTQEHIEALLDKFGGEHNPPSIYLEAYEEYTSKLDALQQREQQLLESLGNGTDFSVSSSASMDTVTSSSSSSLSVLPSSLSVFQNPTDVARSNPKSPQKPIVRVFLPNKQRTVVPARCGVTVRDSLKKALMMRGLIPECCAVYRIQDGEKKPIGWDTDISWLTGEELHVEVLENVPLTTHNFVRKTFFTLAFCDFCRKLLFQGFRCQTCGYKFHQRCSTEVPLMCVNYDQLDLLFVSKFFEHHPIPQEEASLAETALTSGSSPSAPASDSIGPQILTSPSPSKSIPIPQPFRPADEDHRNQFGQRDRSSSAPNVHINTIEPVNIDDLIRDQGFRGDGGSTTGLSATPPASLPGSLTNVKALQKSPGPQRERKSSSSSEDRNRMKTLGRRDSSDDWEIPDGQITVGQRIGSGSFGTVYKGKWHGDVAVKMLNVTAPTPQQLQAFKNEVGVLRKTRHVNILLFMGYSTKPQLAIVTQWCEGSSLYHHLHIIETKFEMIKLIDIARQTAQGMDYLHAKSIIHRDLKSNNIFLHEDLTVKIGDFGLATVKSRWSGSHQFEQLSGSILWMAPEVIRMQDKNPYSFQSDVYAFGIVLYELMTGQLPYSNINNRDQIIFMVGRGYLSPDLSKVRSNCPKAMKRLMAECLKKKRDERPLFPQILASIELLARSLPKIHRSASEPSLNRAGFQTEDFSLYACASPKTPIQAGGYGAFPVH
Sequence of C-RAF (P04049 whole entry): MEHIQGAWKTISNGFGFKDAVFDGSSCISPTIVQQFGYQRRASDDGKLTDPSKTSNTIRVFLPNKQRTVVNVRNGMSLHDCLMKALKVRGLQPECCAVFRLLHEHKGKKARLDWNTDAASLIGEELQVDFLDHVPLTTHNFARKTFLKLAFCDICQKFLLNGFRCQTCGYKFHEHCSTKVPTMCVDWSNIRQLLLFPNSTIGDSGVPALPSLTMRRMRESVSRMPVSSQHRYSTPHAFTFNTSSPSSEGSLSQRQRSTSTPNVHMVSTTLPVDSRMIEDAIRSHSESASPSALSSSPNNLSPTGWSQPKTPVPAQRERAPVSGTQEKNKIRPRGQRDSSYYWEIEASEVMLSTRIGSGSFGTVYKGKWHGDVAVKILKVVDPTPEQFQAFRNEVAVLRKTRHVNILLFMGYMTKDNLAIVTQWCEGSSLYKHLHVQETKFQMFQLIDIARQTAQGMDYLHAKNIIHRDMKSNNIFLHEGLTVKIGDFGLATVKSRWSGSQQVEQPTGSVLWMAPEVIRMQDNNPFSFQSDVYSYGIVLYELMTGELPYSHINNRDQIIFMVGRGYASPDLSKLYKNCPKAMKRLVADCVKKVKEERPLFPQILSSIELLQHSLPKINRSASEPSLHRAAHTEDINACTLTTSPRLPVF
Description for B-RAF: (§1) Test of Small Molecule Compounds for Inhibiting the Activity of C-RAF and B-RAF Kinases
(§2) 1. Preparation of test compounds: according to the molecular weight of the compounds, an appropriate volume of DMSO was directly added to dissolve the test compounds. For storing the compound, the concentration of DMSO is 100%, and the final concentration of DMSO in the experimental system is 1%.
(§3) Enzyme: B-RAF: 0.1 ng/l (the final concentration in the reaction system); C-RAF: 0.1 ng/μl (the final concentration in the reaction system)
(§4) HPE: the reaction without enzyme (1% DMSO)
(§5) ZPE: the reaction with enzyme but without compound (1% DMSO)
(§6) a) 1 ul of 10-fold diluted compound or 10% DMSO was added to a 384-well assay plate,
(§7) b) 4 ul enzyme solution or assay buffer was added to the wells of the assay plate,
(§8) c) the plate was centrifuged at 1000 rpm for 1 minute to homogeneous,
(§9) d) 5 ul of ATP-substrate mixture was added to the wells of the assay plate,
(§10) e) the plate was shaked for mixing for 2 minutes,
(§11) f) the plate was incubated at 30° C. for 1 hour,
(§12) g) 10 ul of ADP-Glo reagent was added to the wells of the assay plate, and the plate was incubated for 40 minutes at 27° C.,
(§13) h) 20 ul of kinase assay solution was added to the wells of the plate, and the plate was incubated for 30 minutes at 27° C.,
(§14) i) the chemiluminescent signal was read with Envision.
(§15) The IC50 values of the positive control compound and the test compounds were calculated using the Prism software according to the variable slope of the curve.
Description for C-RAF: as §1, §2, §3, §4, §5, §6, §7, §8, §9, §10, §11, §12, §13, §14, §15

Turning to `COc1cc2ncnc(Nc3ccc(NC(=O)Nc4ccc(Cl)c(C(F)(F)F)c4)c(Cl)c3)c2c2c1OCCO2` [Example 11, 1-(2-chloro-4-((5-methoxy-2,3-dihydro-[1,4]dioxino[2,3-f]quinazolin-10-yl)amino)phenyl)-3-(4-chloro-3-(trifluoromethyl)phenyl)urea], the IC50 is […] against B-RAF, […] against C-RAF and < 50 nM against VEGFR-2 kinase.
For `COc1cc2ncnc(Nc3ccc(NC(=O)Nc4cccc(S(C)(=O)=O)c4)c(Cl)c3)c2c2c1OCCO2` [Example 17, 1-(2-chloro-4-((5-methoxy-2,3-dihydro-[1,4]dioxino[2,3-f]quinazolin-10-yl)amino)phenyl)-3-(3-methylsulfonylphenyl)urea], the half-inhibitory concentration (IC50) on B-RAF is > 1000 nM; on C-RAF it was > 1000 nM; at VEGFR-2 kinase it was < 50 nM.
With `COc1cc2ncnc(Oc3ccc(NC(=O)Nc4ccc(Cl)c(C(F)(F)F)c4)c(F)c3)c2c2c1OCCO2` [Example 19, 1-(4-chloro-3-(trifluoromethyl)phenyl)-3-(2-fluoro-4-((5-methoxy-2,3-dihydro-[1,4]dioxino[2,3-f]quinazolin-10-yl)oxy)phenyl)urea], the results for the half-maximal inhibitory concentration (IC50) against B-RAF, against C-RAF and at VEGFR-2 kinase were < 200 nM, < 200 nM and < 50 nM, respectively.
As for `COCCOc1cc2ncnc(Nc3ccc(NC(=O)Nc4ccc(Cl)c(C(F)(F)F)c4)c(Cl)c3)c2c2c1OCCO2` [Example 42, 1-(2-chloro-4-((5-(2-methoxyethoxy)-2,3-dihydro-[1,4]dioxino[2,3-f]quinazolin-10-yl)amino)phenyl)-3-(4-chloro-3-(trifluoromethyl)phenyl)urea], the concentration for half-maximal inhibition (IC50) was < 200 nM against B-RAF, 500 to 1000 nM on C-RAF and < 50 nM against VEGFR-2 kinase.
Take `O=C(Nc1ccc(Oc2ncnc3cc(OCCN4CCCC4)c4c(c23)OCCO4)cc1)Nc1cc(C(F)(F)F)ccc1F` [Example 76, 1-(2-fluoro-5-(trifluoromethyl)phenyl)-3-(4-((5-(2-(tetrahydropyrrol-1-yl)ethoxy)-2,3-dihydro-[1,4]dioxino[2,3-f]quinazolin-10-yl)oxy)phenyl)urea]: the half-maximal inhibitory concentration (IC50) against VEGFR-2 kinase was > 5000 nM.
Consider `CCOc1cc2ncnc(Oc3ccc(NC(=O)Nc4cc(C(F)(F)F)ccc4F)cc3)c2c2c1OCCO2` [Example 77, 1-(4-((5-ethoxy-2,3-dihydro-[1,4]dioxino[2,3-f]quinazolin-10-yl)oxy)phenyl)-3-(2-fluoro-5-(trifluoromethyl)phenyl)urea], for which the IC50 against VEGFR-2 kinase is < 50 nM.
`O=C(Nc1ccc(Oc2ncnc3cc(OC4CCOC4)c4c(c23)OCCO4)cc1)Nc1cc(C(F)(F)F)ccc1F` (centres unmarked) [Example 80, 1-(2-fluoro-5-(trifluoromethyl)phenyl)-3-(4-((5-((tetrahydrofuran-3-yl)oxy)-2,3-dihydro-[1,4]dioxino[2,3-f]quinazolin-10-yl)oxy)phenyl)urea]: the IC50 against VEGFR-2 kinase is < 50 nM.
Consider `O=C(Nc1ccc(Oc2ncnc3cc(OCCCN4CCS(=O)(=O)CC4)c4c(c23)OCCO4)cc1)Nc1cc(C(F)(F)F)ccc1F` [Example 81, 1-(4-((5-(3-(1,1-dioxidothiomorpholino)propoxy)-2,3-dihydro-[1,4]dioxino[2,3-f]quinazolin-10-yl)oxy)phenyl)-3-(2-fluoro-5-(trifluoromethyl)phenyl)urea], for which the half-inhibitory concentration (IC50) against VEGFR-2 kinase is < 50 nM.
Take `CN(C)CCCOc1cc2ncnc(Nc3ccc(NC(=O)NC4CC4)c(Cl)c3)c2c2c1OCCO2` [Example 82, 1-(2-chloro-4-((5-(3-(dimethylamino)propoxy)-2,3-dihydro-[1,4]dioxino[2,3-f]quinazolin-10-yl)amino)phenyl)-3-cyclopropylurea]: at VEGFR-2 kinase, the half-maximal inhibitory concentration (IC50) was < 50 nM.
Same read-out and setting: to `CN1CCN(CCOc2cc3ncnc(Nc4ccc(NC(=O)NC5CC5)c(Cl)c4)c3c3c2OCCO3)CC1` [Example 83, 1-(2-chloro-4-((5-(2-(1-methylpiperazin-4-yl)ethoxy)-2,3-dihydro-[1,4]dioxino[2,3-f]quinazolin-10-yl)amino)phenyl)-3-cyclopropylurea] belongs 50 to 500 nM.
As to `CSCCOc1cc2ncnc(Nc3ccc(NC(=O)NC4CC4)c(Cl)c3)c2c2c1OCCO2` [Example 84, 1-(2-chloro-4-((5-(2-methylthioethoxy)-2,3-dihydro-[1,4]dioxino[2,3-f]quinazolin-10-yl)amino)phenyl)-3-cyclopropylurea], the concentration for half-maximal inhibition (IC50) on VEGFR-2 kinase was < 50 nM.
At VEGFR-2 kinase, `CSCCOc1cc2ncnc(Oc3ccc(NC(=O)NC4CC4)c(Cl)c3)c2c2c1OCCO2` [Example 85, 1-(2-chloro-4-(((5-(2-methylthio)ethoxy)-2,3-dihydro-[1,4]dioxino[2,3-f]quinazolin-10-yl)oxy)phenyl)-3-cyclopropylurea] returned an IC50 of 500 to 5000 nM.
The same measure, in the same setting: the figure for `COCCCOc1cc2ncnc(Oc3ccc(NC(=O)NC4CC4)c(Cl)c3)c2c2c1OCCO2` [Example 86, 1-(2-chloro-4-(((5-(3-methoxy)propoxy)-2,3-dihydro-[1,4]dioxino[2,3-f]quinazolin-10-yl)oxy)phenyl)-3-cyclopropylurea] is < 50 nM; for `CN(C)CCOc1cc2ncnc(Nc3ccc(NC(=O)NC4CC4)c(Cl)c3)c2c2c1OCCO2` [Example 87] it is 50 to 500 nM.
Take `COCCCCCCOc1cc2ncnc(Oc3ccc(NC(=O)NC4CC4)c(Cl)c3)c2c2c1OCCO2` [Example 88]: on VEGFR-2 kinase, the IC50 is < 50 nM.
Regarding `O=C(Nc1ccc(Oc2ncnc3cc(OCCCN4CCOCC4)c4c(c23)OCCO4)cc1)Nc1cc(Cl)ccc1F` [Example 89, 1-(2-fluoro-5-chlorophenyl)-3-(4-((5-(3-morpholinopropoxy)-2,3-dihydro-[1,4]dioxino[2,3-f]quinazolin-10-yl)oxy)phenyl)urea], the IC50 on VEGFR-2 kinase was < 50 nM.
In the case of `COc1cc2nccc(Oc3ccc(NC(=O)Nc4ccc(Cl)c(C(F)(F)F)c4)cc3)c2c2c1OCCO2` [Example 90, 1-(4-chloro-3-(trifluoromethyl)phenyl)-3-(4-((5-methoxy-2,3-dihydro-[1,4]dioxino[2,3-f]quinolin-10-yl)oxy)phenyl)urea], on VEGFR-2 kinase, the half-inhibitory concentration (IC50) was < 50 nM.
`COc1cc2nccc(Oc3ccc(NC(=O)Nc4ccc(Cl)c(C(F)(F)F)c4)cc3F)c2c2c1OCCO2` [Example 91, 1-(4-chloro-3-(trifluoromethyl)phenyl)-3-(3-fluoro-4-((5-methoxy-2,3-dihydro-[1,4]dioxino[2,3-f]quinoline-10-yl)oxy)phenyl)urea]: on VEGFR-2 kinase, the half-inhibitory concentration (IC50) lay within 50 to 500 nM.
`COc1cc2nccc(Oc3ccc(NC(=O)Nc4ccc(Cl)c(C(F)(F)F)c4)c(F)c3)c2c2c1OCCO2` [Example 92, 1-(4-chloro-3-(trifluoromethyl)phenyl)-3-(2-fluoro-4-((5-methoxy-2,3-dihydro-[1,4]dioxino[2,3-f]quinoline-10-yl)oxy)phenyl)urea] displayed a concentration for half-maximal inhibition (IC50) against VEGFR-2 kinase of 50 to 500 nM.
Consider `COCCOc1cc2nccc(Oc3ccc(NC(=O)Nc4ccc(Cl)c(C(F)(F)F)c4)cc3)c2c2c1OCCO2` [Example 93, 1-(4-chloro-3-(trifluoromethyl)phenyl)-3-(4-((5-(2-methoxyethoxy)-2,3-dihydro-[1,4]dioxino[2,3-f]quinoline-10-yl)oxy)phenyl)urea], for which the half-maximal inhibitory concentration (IC50) against VEGFR-2 kinase fell in the range of 50 to 500 nM.
In turn, `COCCOc1cc2nccc(Oc3ccc(NC(=O)Nc4ccc(Cl)c(C(F)(F)F)c4)cc3F)c2c2c1OCCO2` [Example 94, 1-(4-chloro-3-(trifluoromethyl)phenyl)-3-(3-fluoro-4-((5-(2-methoxyethoxy)-2,3-dihydro-[1,4]dioxino[2,3-f]quinoline-10-yl)oxy)phenyl)urea] returned a half-inhibitory concentration (IC50) at VEGFR-2 kinase of 50 to 500 nM.
